Laboratory results from article PMC9108603, “Microbial Metabolite Inspired β‐Peptide Polymers Displaying Potent and Selective Antifungal Activity” (Advanced Science, 2022).
Values after ≈ are worked out from the molar mass of the structure shown. Read-outs that look alike come from different tables or passages of the source.

What was measured:
C. neoformans = experiment: MIC assay (in vitro antifungal assay); format: cell-based; details: Cryptococcus neoformans, 48 h
Method: In vitro antifungal assays. The MIC assays for C. albicans (K1, SC5314, Gu5, ATCC90028, R01, R02, R03 and R04 strains) and C. neoformans (H99, MYA737 and JEC21 strains) were conducted according to a previously described protocol. The cultured fungal cells were collected at 2.5 × 10^3 CFU/mL in RPMI 1640 medium to give the working suspension. Two- […]
plate to give 50 µL compound solution in each well. Then 50 µL of the cell suspension was added to each well. Wells containing cells in RPMI without any polymer or antifungal drug were used as drug-free controls, and wells containing RPMI medium only were used as cell-free controls. The plate was gently stirred for 10 seconds and then incubated at 30 °C. After C. albicans and C. neoformans cells were incubated for 24 h and 48 h, respectively, fungal cell growth was checked visually. […]

kidney cells (COS7) = experiment: Cytotoxicity, MTT assay; format: cell-based; details: Chlorocebus aethiops, COS-7, 24 h, 37 °C, 800 to 1.6 μg/mL, 50% cell viability
Method: (§1) Cytotoxicity assay. Cytotoxicity tests were performed on NIH 3T3 fibroblast cells, endothelial cells (HUVEC), macrophage (RAW264.7), liver cells (LO2), kidney cells (COS7) and enterocyte (NCM-460) using MTT assay. Cells were cultured in DMEM supplemented with 10% FBS, 5% penicillin, 2 mM L-glutamine and incubated at 37 °C in 5% CO 2. Cells were harvested and seeded onto 96-well plates at a density of 1.0 × 10^4 cells per well and incubated for 24 h. On each plate, wells containing growth medium only and cells in growth medium without any antifungal agent were used as the negative and positive control, […]
(§2) concentrations ranging from 800 to 1.6 μg/mL. Medium in each cell-containing well was replaced with 100 μL of the corresponding polymer solution, and the plates were incubated at 37 °C for 24 h. Then, the solution in each well was switched to 100 µL MTT solution (1 mg/mL) and the plate was incubated in the dark at 37 °C for 4 h. After centrifuge (to prevent the possible loss of formazan crystals) and removal of the supernatant, 100 μL DMSO was added to each well to dissolve the formed formazan under stirred for 20 min. Then 85 µL of the supernatant from each well was transferred to the corresponding well in a new plate, followed by absorbance measurement at 570 nm on a plate reader. Each antifungal agent was tested in triplicate in each assay, and the experiment was conducted at least twice on a different day. The percentage of cell viability in each test well, relative to the positive control (which defines 100%) w as calculated from [% fibroblast growth = (A polymer – Ablank)/(Acontrol – A blank) × 100]. The IC 50 value is the minimum concentration to inhibit 50% of fibroblast cell growth. All measurements were performed with three replicates.

liver cells (LO2) = experiment: Cytotoxicity, MTT assay; format: cell-based; details: 24 h, 37 °C, 800 to 1.6 μg/mL, 50% cell viability
Method: as §1, §2

enterocyte (NCM-460) = experiment: Cytotoxicity, MTT assay; format: cell-based; details: Homo sapiens, NCM460, 24 h, 37 °C, 800 to 1.6 μg/mL, 50% cell viability
Method: as §1, §2

NIH 3T3 fibroblast cells = experiment: Cytotoxicity, MTT assay; format: cell-based; details: Mus musculus, NIH3T3, 24 h, 37 °C, 800 to 1.6 μg/mL, 50% cell viability
Method: as §1, §2

macrophage (RAW264.7) = experiment: Cytotoxicity, MTT assay; format: cell-based; details: Mus musculus, 24 h, 37 °C, 800 to 1.6 μg/mL, 50% cell viability
Method: as §1, §2

C. albicans K1 strain = experiment: Kill kinetics assay; format: cell-based, Candida albicans; details: 2 × MFC, C. albicans K1, RPMI 1640, 30 °C, CFU on YPD agar, duplicates
Method: Kill kinetics assay. A culture of C. albicans K1 strain was collected at 2.5 × 10^3 CFU/mL or 6.0 × 10^6 CFU/mL in RPMI 1640 medium to give the working suspension. […]
solution was added to 0.5 mL of the above fungal suspension in each well of a 24-well plate to achieve 2 × MFC of polymer concentration. The fungal suspensions were incubated at 30 °C. At desired time points, each suspension was homogeneously mixed and 30 µL of each

C. albicans (K1 strain) = experiment: Mitochondrial membrane potential (JC-1); format: cell-based, Candida albicans; details: 50 μg/mL PDAP20, 2 h, 3.0 × 10^6 CFU/mL; green = early stage of apoptosis
Method: NAC concentration without affecting the normal cell growth. Wells containing cells in RPMI and 40 mM H 2O2 was used as positive controls. Cell suspension of C. albicans (K1 strain) at 6.0 × 10^6 CFU/mL was treated with 20 μM 2,7-dichlorodi-hydrofluorescein diacetate (DCFHDA) for 20 min. Then 50 µL of the cell suspension was added to each well, except the blank control (RMPI containing DCFHDA without cells). The fluorescence intensity of the induced ROS production was measured every 30 min using a plate reader at λ ex = 485 nm and λem = 530 nm. The confocal observation of ROS production was conducted after C. albicans (K1 strain) suspension at 3.0 × 10^6 CFU/mL was incubated with 50 μg/mL CPM-PDAP 20 for 2 h. […]
Detection of mitochondrial membrane potential. Changes in mitochondrial membrane potential in C. albicans after incubation with PDAP 20 were analyzed using JC-1 as previously described. Mitochondrial membrane potential was detected with the fluorescent dye JC-1, which exists as aggregates (red) in normal cells with polarized mitochondria, whereas exists as monomers (green) in apoptotic cells with depolarized mitochondria. […]
DNA fragmentation assay. Apoptosis induced DNA fragments in C. albicans cells were analyzed using the TdT-mediated dUTP Nick-End Labeling (TUNEL) method. […]

C[C@@H]1[C@H](O)[C@@H](C)/C=C/C=C/C=C/C=C/C=C/C=C/C=C/[C@H](O[C@@H]2O[C@H](C)[C@@H](O)[C@H](N)[C@@H]2O)C[C@@H]2O[C@](O)(C[C@@H](O)C[C@@H](O)[C@H](O)CC[C@@H](O)C[C@@H](O)CC(=O)O[C@H]1C)C[C@H](O)[C@H]2C(=O)O [AmpB, amphotericin B]
MIC (C. neoformans; read-out: MIC C. neoformans H99): 1.6 µg/mL (≈ 1.73 µM)
MIC (C. neoformans; read-out: MIC C. neoformans JEC21): 1.6 µg/mL (≈ 1.73 µM)
MIC (C. neoformans; read-out: MIC C. neoformans MYA737): 1.6 µg/mL (≈ 1.73 µM)
IC50 (kidney cells (COS7)): 25 µg/mL (≈ 27.1 µM)
IC50 (liver cells (LO2)): 77 µg/mL (≈ 83.3 µM)
IC50 (enterocyte (NCM-460)): 40 µg/mL (≈ 43.3 µM)
IC50 (NIH 3T3 fibroblast cells): 1.6 µg/mL (≈ 1.73 µM)
IC50 (macrophage (RAW264.7)): 128 µg/mL (≈ 139 µM)

poly(DL‐diaminopropionic acid) [PDAP20]
Time to completely kill the fungi (time‐kill kinetics) (C. albicans K1 strain): several hours
Mitochondrial membrane potential, JC‐1 stain (C. albicans (K1 strain)): cytosol green fluorescence
